Assay results as given in US10174401B2, “Methods for binding and precipitating gold using microbial-derived metallophores and their uses” (McMaster University, priority 2013, dated 2019).
*1 amine or outer side, *2 acyl side, *3 side chain or, on linkers, in order; H or OH if unused. Where a SMILES comes first, the peptide text is derived from it. [ ]: non-standard residue; d: D form. The star is where a group is joined. ξ: configuration not given here. NH(1-OH-2-oxopiperidin-3-yl) = O=C1C(N*)CCCN1O; ξOrn(N(OH)Ac) = CC(=O)N(O)CCCC(N)C(=O)O; ξOrn(N(OH)CHO) = NC(CCCN(O)C=O)C(=O)O; ξAsp(βξ-Me) = CC(C(=O)O)C(N)C(=O)O; X2 = C/C=C(/N[*:1])C(=O)[*:2]; X1 = CC(N)C(O)C(C)C(=O)*

Experiments:
[1] = TEM imaging of siderophore-gold reactions
Description: Transmission electron microscopy imaging was performed with a JEOL JEM 1299 EX TEMSCAN transmission electron microscope (JEOL, Peabody, Mass., USA) operated at an accelerating voltage of 80 kV. Sample preparation: a 2 μL drop of a diluted (10×) siderophore-gold reaction was deposited over a formvar-coated TEM grid, and was allowed to dry under ambient conditions before being imaged. Gold nanoparticle size distribution was determined using the software, ImageJ.

[2] = Gold-siderophore reactions (gold nanoparticle formation, gold-iron competition, LC-MS of supernatant); details: for gold nanoparticle formation (visual inspection): 10 mM AuCl3 reacted with equimolar chelator; for concentration of metallophore after AuCl3 exposure: LC-MS, 2 hr exposure, vs unreacted control; for reaction with gold after pre-exposure to / in presence of iron: equimolar FeCl3
Description: Ten microliters of the AuCl3 stock solution was aliquoted into separate 200 μL microcentrifuge tubes, followed by the addition of 10 μL of each respective siderophore or metal chelator, where water was used as a control. The reaction was monitored over time and images were taken. After 2 h, a sample of the mixture was diluted 10× and analyzed by transmission electron microscopy (TEM) (see below). The remaining sample was centrifuged at 13,000 rpm for ten minutes. A 10 μL sample of the supernatant was diluted in 90 μL of water and subsequently analyzed by LC-MS. A control of unreacted siderophore and metal chelator of the same concentration was also analyzed for comparison. […] Reactions were monitored similarly. UV-vis spectrums were obtained using a Synergy 4 microplate reader (Biotek).

[3] = Time course of AuCl3 precipitation by delftibactins in absence and presence of FeCl3
Description: (§1) Twenty microliter reactions were set up as follows: i) water only, ii) 5 mM delftibactin A, iii) 5 mM AuCl3 iv) 5 mM FeCl3 v) 5 mM AuCl3+5 mM FeCl3 vi) 5 mM delftibactin B+5 mM AuCl3 vii) delftibactin B+5 mM AuCl3+5 mM FeCl3 viii) delftibactin B+5 mM FeCl3. Reactions were initiated by the addition of delftibactin and images were taken at time points indicated. After 2 h, reactions were serially diluted to 30 μM final concentration in ACM containing D. acidovorans ΔdelG diluted 1:1000 from an overnight culture. Optical density was monitored using a TECAN Sunrise™ microplate reader at 600 nm for 36 h. Results are a mean of three growth curves for each condition from a single representative experiment. As a second test of delftibactin protective capacity, D. acidovorans ΔdelG cells from an overnight culture were inoculated 1:1000 into 100 μL ACM in a 96-well plate containing 0 or 10 μM AuCl3, and then provided 0 or 100 μM delftibactin. Cultures were grown for 84 h at 250 rpm at 30° C. in a TECAN Sunrise™ microplate reader, measuring at 600 nm to assess growth. Results are a mean of three growth curves for each condition from a single representative experiment.

D. acidovorans ΔdelG [4] = assay: Gold protective comparison of delftibactin A and B (growth curves); type: cell-based, Delftia acidovorans; details: 125 μM AuCl3 + 125 μM delftibactin
Description: Twenty microliter reactions were set up as follows: water only, 5 mM AuCl3, 5 mM AuCl3+delftibactin A, and 5 mM AuCl3+delftibactin B. Reactions were initiated with the addition of delftibactin A or B. After 2 h, reactions were serially diluted to 125 μM in ACM containing D. acidovorans ΔdelG diluted 1:1000 from an overnight culture. Optical density was monitored using a TECAN Sunrise™ microplate reader at 600 nm for 36 h. Results are a mean of three growth curves for each condition from a single representative experiment.

D. acidovorans = assay: Growth of D. acidovorans in presence of gold precipitate or AuCl3 (MIC); type: cell-based, Delftia acidovorans
Description: The assay was set up as follows: 50 μL of ddH2O containing 3.2, 1.6, 1.4, 1.2, 1.0, 0.8, 0.6, 0.4, and 0.2 mM delftibactin A was added in quadruplicate to wells within a 96-well plate. A 1.6 mM stock solution of AuCl3 was made and 50 μL was added to each well containing delftibactin A. No-delftibactin A and no-AuCl3 controls containing only water were also added to the 96-well plate in quadruplicate. This was incubated for 30 min at room temperature, during which time 10 mL of an overnight culture of D. acidovorans, grown in ACM was centrifuged and resuspended in 5 mL sterilized ddH2O. After 30 min incubation of AuCl3 with delftibactin, 100 μL of concentrated culture was added to each well. Final concentration of AuCl3 was 400 μM and the final concentrations of delftibactin A were 800, 400, 350, 300, 250, 200, 150, 100, and 50 μM. After 30 minutes of incubation at room temperature, mixtures were serial diluted and plated onto Nutrient Agar plates and incubated at 30° C. Colonies were counted after 24 h of growth. Results are shown as mean±s.d.; n=4. To assess whether D. acidovorans could grow in the presence of the gold precipitate, several milligrams of delftibactin A and AuCl3 were reacted 1:1 overnight and centrifuged, and washed once with water to concentrate the precipitate. The precipitate was resuspended in ddH2O at a final concentration of 100 mM, calculated using a molecular weight of 1227 g/mol, corresponding to a gold-delftibactin A species. D. acidovorans was grown overnight in a 96-well plate in 100 μL of ACM containing 20 μM to 10 mM gold precipitate or AuCl3. […] The MIC of AuCl3 was determined to be roughly 10 μM.

D. acidovorans ΔdelG [5] = assay: Delftibactin-mediated protection against gold toxicity (CFU after acute exposure); type: cell-based, Delftia acidovorans
Description: Cultures of D. acidovorans wild type and D. acidovorans ΔdelG were grown in deferrated ACM for 2 days at 30° C. In 96-well plates, 200 μL of wild type or mutant grown culture were incubated in the presence and absence of 100 μM AuCl3. At the same time, the mutant culture was also complemented with […] delftibactin (biological levels) in the presence of 100 μM AuCl3. After 30 minutes, cultures were serially diluted in water and plated on LB agar to determine the colony forming units of D. acidovorans after gold exposure. Results are shown as mean s.d.; n=4; Two-tailed student's t-test.

[6] = Test strip: metallophore on C18-silica TLC plate developed with gold chloride; details: immobilized on C18-silica TLC slide, developed with gold chloride solution
Description: Pictures were taken after 10 min.
A solution containing gold chloride was used to develop the strip. Pictures were taken at the times indicated.

D. acidovorans ΔdelG [7] = assay: Gold detoxification in chronic exposure by delftibactin A (growth curves); type: cell-based, Delftia acidovorans
Description: as §1

[8] = Citrate-gold and delftibactin A-gold comparison; details: room temperature, neutral pH
Description: Stock 10 mM solutions of sodium citrate and purified delftibactin A were mixed with and equimolar solution of AuCl3 and allowed to react at room temperature in 1.5 mL Eppendorf tubes. Photographs were taken from the initial addition of gold to 1 h exposure. Similarly, TEM experiments were performed by mixing 10 mM stock solutions of AuCl3 and either delftibactin A or sodium citrate 1:1 on a formvar-carbon coated 100-square mesh copper grid, imaging after 10 min AuCl3 exposure.

[9] = Transmission electron microscopy of delftibactin A:Au(III) complexes; details: delftibactin A:AuCl3 2:1, 10 min
Excerpt: Delftibactin A was reacted with AuCl3 with a molar ratio equal to 2:1 for ten minutes. Each separate reaction of delftibactin A with AuCl3 was examined using a Phillips CM-10 transmission electron microscopy operating at 80 kV. The whole-mount sample was absorbed and dried on a formvar-carbon coated 100-square mesh copper grid and rinsed with filter sterilized, de-ionized water to remove any salt precipitates.

[10] = Description: The gold-delftibactin A interaction was determined through two separate experiments. First, AuCl3 was held constant at 2.5 mM and the interaction with delftibactin A was monitored by measuring the absorption of AuCl3 remaining in solution after precipitation by delftibactin A through comparison with a standard curve. Briefly, 2.5 mM AuCl3 was incubated with 5, 2.5, 1.25, 0.6125, 0.3063, and 0.1531 mM delftibactin A for 1 h. Solutions were filtered with a 0.22 μM Acrodisc (Pall, USA) to remove insoluble delftibactin A-gold precipitate. 100 μl of the filtered reaction was placed in a 96-well plate and the absorbance was read at 300 nm using a SpectraMax 384 Plus (Molecular Devices, USA). Absorption was compared to an AuCl3 standard curve to determine the concentration of AuCl3 remaining in solution. To monitor the amount of delftibactin A remaining in solution after reaction with gold a similar experiment was conducted. Delftibactin A (2.5 mM) was incubated with 5, 2.5, 1.25, 0.6125, 0.3063, and 0.1531 mM AuCl3 for 1 h. Solutions were filtered similar to above. Reaction mixtures were analyzed using a Waters Alliance 2695 RP-HPLC separations module, equipped with a Waters 2998 photodiode array and a Luna 5u C18 column (250×4.60 mm, Phenomenex). The mobile phase was linear from 2% acetonitrile, 98% water+5 mM (NH4)2CO3 at 2 min to 14% acetonitrile at 18 min at a flow rate of 1 mL/min. […]
[11] = Exposure of acidobactin A to gold; details: when exposed to gold

CC(C)(C1=N[C@@](C)(C(=O)O)CS1)[C@H](O)[C@@H]1CSC([C@H]2CSC(c3ccccc3O)=N2)N1 (stereo partly drawn) [yersiniabactin, reference compound]
nanoparticles seen by TEM ([1]; after 2 h reaction with AuCl3): did not create any distinct nanoparticles | gold nanoparticle formation (visual inspection) [2]: does not generate substantial quantities of gold nanoparticles

c1ccc(-c2ccccn2)nc1 [bipyridyl]
gold nanoparticle formation (visual inspection) [2]: fail to develop a similar effect even after prolonged exposure to gold ions

C/C=C(/NC(=O)CNC(=O)C(C)NC(=O)C(NC(=O)C(C)C(O)C(C)N)C(C)C(=O)O)C(=O)NC(CCCN(O)C(C)=O)C(=O)NC(C)C(=O)NC(CCCNC(=N)N)C(=O)NC1CCCN(O)C1=O (stereo not drawn) [delftibactin B] (X1-[ξAsp(βξ-Me)]AG[X2][ξOrn(N(OH)Ac)]AR-{NH(1-OH-2-oxopiperidin-3-yl)}; configuration not given here)
gold nanoparticle formation (visual inspection) [2]: rapidly undergo a characteristic blackening | gold reduction efficiency ([3]; 5 mM AuCl3, compared with delftibactin A): less efficient in gold reduction | detoxification / protection against AuCl3 toxicity (D. acidovorans ΔdelG [4]): decreased detoxification

CC(=O)N(O)CCCC[C@H](NC(=O)CC(O)(CC(=O)N[C@@H](CCCCN(O)C(C)=O)C(=O)O)C(=O)O)C(=O)O [aerobactin]
gold nanoparticle formation (visual inspection) [2]: fail to produce defined gold nanoparticles

[Cl][Au]([Cl])[Cl] [AuCl3]
concentration at which toxic (D. acidovorans; D. acidovorans): 10 µM | MIC of AuCl3 (D. acidovorans; D. acidovorans grown overnight in ACM, 96-well plate): roughly 10 μM | growth of D. acidovorans (D. acidovorans; overnight in ACM containing 20 μM to 10 mM gold precipitate or AuCl3): No growth | increase in sensitivity to gold toxicity in the ΔdelG strain (D. acidovorans ΔdelG [5]; ΔdelG vs wild-type, 100 μM AuCl3, 30 min exposure, CFUs): 102.8 fold

C/C=C(/NC(=O)CNC(=O)C(C)NC(=O)C(NC(=O)C(C)C(O)C(C)N)C(C)C(=O)O)C(=O)NC(CCCN(O)C=O)C(=O)NC(C)C(=O)NC(CCCNC(=N)N)C(=O)NC1CCCN(O)C1=O (stereo not drawn) [delftibactin A] (X1-[ξAsp(βξ-Me)]AG[X2][ξOrn(N(OH)CHO)]AR-{NH(1-OH-2-oxopiperidin-3-yl)}; configuration not given here)
darkening of test strip [6]: darkening can be seen | octahedral gold particle formation ([1]; TEM): also produces octahedral gold particles | gold nanoparticle formation (visual inspection) [2]: rapidly undergo a characteristic blackening | concentration of metallophore after AuCl3 exposure [2]: decreased | reaction with gold after pre-exposure to / in presence of iron [2]: gold reducing power is reduced | toxicity (D. acidovorans ΔdelG [7]): nontoxic | protection from chronic gold toxicity (D. acidovorans ΔdelG [7]; exogenous addition to ΔdelG cultures, 100 μM delftibactin A + 10 μM AuCl3, 84 h): sufficient to overcome chronic gold toxicity | rescue of ΔdelG strain from gold toxicity (D. acidovorans ΔdelG [5]; exogenous purified delftibactin 30 sM, 100 μM AuCl3, 30 min): rescued | gold precipitation in presence of iron ([3]; equimolar 5 mM AuCl3 + 5 mM FeCl3): gold precipitation would proceed in the presence of high concentrations of iron | detoxification / protection against AuCl3 toxicity (D. acidovorans ΔdelG [4]): more protective against AuCl3 toxicity than delftibactin B | timescale of creating gold structures from Au3+ [8]: seconds | nature of gold precipitate by TEM [9]: abundance of colloidal gold nanoparticles and octahedral gold platelets | solubility on complexing to gold [10]: abrupt and total loss of solubility | co-precipitation with gold ([10]; 2.5 mM AuCl3, end-point assays): co-precipitate with gold from solution

O=C(N[C@H]1COC(=O)[C@@H](NC(=O)c2cccc(O)c2O)COC(=O)[C@@H](NC(=O)c2cccc(O)c2O)COC1=O)c1cccc(O)c1O [enterobactin]
gold nanoparticle formation (visual inspection) [2]: considerable gold nanoparticle formation | concentration of metallophore after AuCl3 exposure [2]: remained unchanged | reaction with gold after pre-exposure to / in presence of iron [2]: reacts with gold to a similar extent as when iron is not present

CC1CC(=O)NC(CCCN(O)C=O)C(O)CC(=O)NC(C(C)O)C(=O)NC(CCCNO)C(=O)NC(CO)C(=O)NC(C(O)C(=O)O)C(=O)O1 (stereo not drawn) [acidobactin A]
gold complexing [11]: shown the gold complexing phenomenon

O=C(O)CN(CCN(CC(=O)O)CC(=O)O)CC(=O)O [EDTA, ethylenediaminetetraacetic acid]
gold nanoparticle formation (visual inspection) [2]: fail to develop a similar effect even after prolonged exposure to gold ions
